# Data as given in US20160151458A1, “Use Of Unacylated Ghrelin, Fragments And Analogs Thereof As Antioxidant” (ALIZE PHARMA SAS, priority 2013, published 2016).
# Ends that are not written are not given here. * marks the point of attachment. Octanoyl = CCCCCCCC(=O)*
# Key:
# [1] = test system: primary SCs; assay: In-vitro ischemia of primary SCs from normo-perfused muscles; assay type: cell-based, C57BL/6J mice; conditions: SB202190 1 μmol/L added
# Procedure: (§1) SCs were isolated from gastrocnemius muscles of C57BL/6J wild type mice subjected to ischemia or C57BL/6J mice lacking the GHSR1a and ghrelin genes (10 mice, kind gift of Professor M. Tschöp)^39. To obtain SCs, muscle samples were subjected to enzymatic digestion as described^45. In selected experiments, SCs were recovered from normo-perfused muscles and subjected to in-vitro ischemia in presence of saline, AG (1 μmol/L) or UAG (1 μmol/L). In-vitro ischemia was induced by incubating cells in DMEM+2% FCS at 5% CO2/95% N2 humidified atmosphere, yielding 1% O2 concentrations for 24 h^18. The in-vitro ischemia was also performed in the presence of SB202190 (1 μmol/L).
# (§2) SC cell-cycle progression was evaluated by evaluating the percentage of PCNA-positive cells or by FACS analysis as previously described^46. The percentage of cells in each cell cycle phase was determined by ModFit LT software (Verity Software House. Inc, topsham, ME, USA). Celss proliferation was also assayed by evaluating the percentage of PCNA-positive cells by FACS analysis.
# (§3) Cells were lysed and protein detection was obtained as previously described^47. Cells were lysed (50 mmol/L Tris HCl [pH 8.3], 1% Triton X-100, 10 mmol/L PMSF, 100 U/ml aprotinin, 10 μmol/L leupeptin) and protein concentrations were obtained as previously described^47. […] Densitometric analysis was used to calculate the differences in the fold induction of protein levels and normalized to tubulin, a actin or p38MAPK content. Values are reported as relative amount
# (§4) Intracellular ROS production was evaluated using DCF-DA (5-(and-6)-carboxy-2′,7′-dichlorofluorescein diacetate, […] final concentration) (Molecular Probe, Invitrogen) assay as previously described^23. The formation of TBARS was determined in muscles using the OXI-TEK kit (ZeptoMetrix Corp.) and a luminescence spectrometer (Bio-Rad Laboratories, Hercules, Calif.) with excitation set at 530 nm, emission at 550 nm to measure in-vivo oxidative stress levels^33.
# Total RNA was isolated using TRIzol reagent (Invitrogen) from SCs recovered from muscles of treated animals or from SCs subjected to in-vitro ischemia. miR-221/222 expression was evaluated by qRT-PCR as previously described^48. Loss-of-function experiments were performed in SCs transfected for 48 h with anti-miRNA negative control, anti-miR-221/222 antagonists (Applied Biosystem, Foxter Cyto CA, USA), according to the manufacturer's instructions^48.
# [2] = test system: SCs from double KO mice; assay: In-vitro ischemia of SCs from double KO mice lacking the GHSR1a and ghrelin genes; assay type: cell-based, C57BL/6J mice lacking the GHSR1a and ghrelin genes
# Procedure: as §1, §2, §3, §4
# [3] = test system: unilateral hind limb ischemia in C57BL/6J mice (ischemic gastrocnemius muscle); assay: Murine hind-limb ischemia model; assay type: in vivo
# Procedure: Male C57BL/6J mice (Charles River Lab., Wilmington, Mass., USA) were anesthetized and unilateral hind limb ischemia was induced as described^42. The normo-perfused contralateral limb of each mouse was used as an internal control. After hind-limb ischemia, animals (18 mice per group) were treated by intra-peritoneal injection daily from 0 to day 21 with either saline, AG (100 μg/kg) or UAG (100 μg/kg). In selected experiments, mice received intramuscular injections of pre-miR oligonucleotides (5 mice/group). To induce toxic damage, 100 μl of 1% barium chloride (BaCl2, Sigma Aldrich) was injected unilaterally into the hind limb (9 mice). Mice were treated according to European Guidelines and policies as approved by the University of Turin Ethical Committee.
# Semiquantitative estimation (by repeated measures analyzed with ANOVA and Newman-Keuls Multiple Comparison test) of foot damage was performed serially using the following classification: 3=dragging of foot (foot necrosis), 2=no dragging but no plantar flexion (foot damage), 1=plantar flexion but no toe flexion (toe damage), and 0=flexing the toes to resist gentle traction on the tail (no damage)^43.
# Gastrocnemius muscle sections from ischemic or normo-perfused limbs were stained with hematoxylin and eosin for histological analysis. The proportion of fibers with central nuclei (regenerating fibers) was measured by MetaMorph software (Life Sciences Research Imaging Systems) in the injured area and the cross-sectional areas of the fibers in the injured and non-injured areas. For IF analysis, muscle sections were processed as described previously^44. The number of cells expressing the indicated markers or CD31 positive vessels was evaluated as previously described^34.
# as §4
# [4] = test system: glucose, insulin and lipid metabolisms; conditions: cited from earlier work; for retention of the activity of UAG full length: U.S. Pat. Nos. 8,222,217 and 8,318,664; for smallest fragment retaining UAG activity: earlier patents
# [5] = test system: C2C12 mouse muscular cell line; assay: ROS production (DCF-DA) in C2C12 cells under oxidative stress; assay type: cell-based; conditions: 1 μmol/L; stress by hypoxia (1% O2), AGEs, hyperglycemia (25 mM) or H2O2; FIG. 8
# Procedure: Kinetic analysis of ROS production was evaluated by using DCF-DA (5-(and-6)-carboxy-2′,7′-dichlorofluorescein diacetate, 0.5 μmol/L final concentration) (Molecular Probe, Invitrogen) assay. C2C12 cells were cultured with 400 μg/ml Advanced Glycated End-product (AGE) or 25 mM glucose (high glucose HG) for 48 h, H2O2 (100 μM) for 2 h. In parallel experiments C2C12 cells were subjected to hypoxia (DMEM+2% FCS in a 5% CO2-95% N2 humidified atmosphere, yielding to 1% O2 concentrations for 24 h). UAG (1 μmol/L) AZP 531 (1 μmol/L) or AZP-502 (1 μmol/L) was added where indicated.
compound,measurement,setting,value
"Oc1ccc(-c2nc(-c3ccncc3)c(-c3ccc(F)cc3)[nH]2)cc1 [SB202190, reference compound]",cell-cycle entry of SCs exposed to UAG,[1]; FIG. 5E,blocked cell-cycle entry
same,MyoD and myogenin expression in SCs exposed to UAG,[1]; FIG. 5F,prevented MyoD and myogenin expression
"AG: 28 amino acid peptide with an n-octanoyl modification on the Ser3 residue; endogenous ligand of GHSR-1a (GSS(Octanoyl)FLSPEHQRVQQRKESKKPPAKLQPR; UniProt Q9UBU3 24-51, looked up) [reference compound]",SC cell-cycle progression,[2]; FIG. 5G,only UAG
same,"p-p38/MAPK, Pax-7, MyoD, Myf5 and myogenin expression","[2]; FIGS. 5H, 5I",only UAG
same,protection against ischemia-induced damage (overall in vivo effect),[3]; 100 μg/kg i.p. daily,failure to detect in vivo effects
same,foot damage (functional score),"[3]; 100 μg/kg i.p. daily from day 0, FIG. 1A",significantly higher
same,"capillary density, ischemic vs contralateral control muscles of the same animals","[3]; 100 μg/kg i.p. daily, FIG. 1B",significantly lower capillary density than in contralateral control muscles
same,concentration of TBARS in ischemic muscles,[3]; FIG. 3A,Significant increases in the concentration of TBARS
EHQRVQ [UAG (8-13)],retention of the activity of UAG full length,[4],"retain the activity of UAG full length on glucose, insulin and lipid metabolisms"
Glu-His-Gln-Arg (EHQR; listed as Homo sapiens) [UAG (8-11)],retention of the activity of UAG full length,[4],"retain the activity of UAG full length on glucose, insulin and lipid metabolisms"
same,smallest fragment retaining UAG activity,[4],smallest UAG fragment to retain UAG activities
Glu-His-Gln-Arg-Val (EHQRV; listed as Homo sapiens) [UAG (8-12)],retention of the activity of UAG full length,[4],"retain the activity of UAG full length on glucose, insulin and lipid metabolisms"
His-Gln-Arg (HQR; listed as Homo sapiens) [UAG (9-11)],retention of the activity of UAG full length,[4],"retain the activity of UAG full length on glucose, insulin and lipid metabolisms"
His-Gln-Arg-Val (HQRV; listed as Homo sapiens) [UAG (9-12)],retention of the activity of UAG full length,[4],"retain the activity of UAG full length on glucose, insulin and lipid metabolisms"
same,smallest fragment retaining UAG activity,[4],smallest UAG fragment to retain the biological activity of UAG
SPEHQRVQ [UAG (6-13)],retention of the activity of UAG full length,[4],"retain the activity of UAG full length on glucose, insulin and lipid metabolisms"
same,protection against oxidative stress (ROS production),[5],have a protective effect on C2C12 cells against oxidative stress
"Ser-Pro-Glu-His-Gln-Arg-Val-Gln (cycl) (SPEHQRVQ; also: cyclic, closure not given here; listed as Homo sapiens) [UAG(6-13)cyclic]",protection against oxidative stress (ROS production),[5],have a protective effect on C2C12 cells against oxidative stress
